{"source": "patent US9422239B1", "about": "“Dual PPAR-δ PPAR-γ agonists” (Auburn University, priority 2013, dated 2016)", "key": {"PPARγ (AP2-PPRE)": {"target": "T1, PPARγ (AP2-PPRE) (Homo sapiens, UniProt P37231)", "T1 construct": "expressed in transfected cells; host or cells: HEK-293", "T1 sequence (P37231 1-505)": "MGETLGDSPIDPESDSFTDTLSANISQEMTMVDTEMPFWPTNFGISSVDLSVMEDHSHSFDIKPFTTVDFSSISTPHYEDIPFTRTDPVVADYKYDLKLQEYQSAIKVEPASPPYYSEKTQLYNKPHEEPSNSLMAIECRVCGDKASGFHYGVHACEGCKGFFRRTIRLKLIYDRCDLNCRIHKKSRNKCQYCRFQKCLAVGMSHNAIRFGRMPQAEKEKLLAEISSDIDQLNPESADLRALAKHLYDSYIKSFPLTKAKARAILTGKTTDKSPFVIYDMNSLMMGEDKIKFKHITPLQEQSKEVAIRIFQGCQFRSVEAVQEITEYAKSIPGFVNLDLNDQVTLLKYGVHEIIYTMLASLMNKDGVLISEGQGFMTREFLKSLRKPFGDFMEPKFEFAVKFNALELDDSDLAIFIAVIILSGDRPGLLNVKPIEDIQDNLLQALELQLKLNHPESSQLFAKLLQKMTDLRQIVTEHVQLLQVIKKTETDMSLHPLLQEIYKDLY", "T1 sequence (P19793 1-462 partner)": "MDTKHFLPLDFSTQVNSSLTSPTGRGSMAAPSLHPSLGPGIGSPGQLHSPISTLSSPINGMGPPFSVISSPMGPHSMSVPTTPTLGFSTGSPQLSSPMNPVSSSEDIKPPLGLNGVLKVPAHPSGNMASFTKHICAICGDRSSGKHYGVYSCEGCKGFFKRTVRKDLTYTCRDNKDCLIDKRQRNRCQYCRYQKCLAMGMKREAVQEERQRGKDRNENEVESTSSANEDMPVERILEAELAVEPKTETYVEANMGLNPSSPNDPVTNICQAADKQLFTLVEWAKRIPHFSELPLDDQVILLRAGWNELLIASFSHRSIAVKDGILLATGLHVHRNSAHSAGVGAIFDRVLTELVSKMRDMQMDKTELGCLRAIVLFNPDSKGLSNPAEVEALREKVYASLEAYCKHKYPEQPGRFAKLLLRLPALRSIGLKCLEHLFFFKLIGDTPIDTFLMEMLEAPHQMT", "assay": "AP2-PPRE luciferase assay in HEK-293 cells", "type": "cell-based", "description": "To validate the specificity of the novel compounds towards activation of PPARγ/δ targets, we tested the compounds capacity to bind to select PPARγ/δ Peroxisome Proliferator Response Elements (PPRE). The PPRE are unique sites located in the promoter region where PPARs bind and transcriptionally activate the target genes. AP2-PPRE is the PPARγ target involved in adipocyte growth and differentiation. PDK4-PPRE is a PPARδ target involved in regulating energy metabolism in the cell. These PPREs were inserted into a PGL3 luciferase vectors containing CMV promoters (ADDGENE) using PCR. These vectors were co-transfected with RXR, PPARγ/PPARδ and p-galactosidase vectors into HEK-293 cells using Lipofectamine 2000 (Invitrogen). Relative light units (RLU) were measured using a Glomax Luminometer (Promega). Data were standardized to p-galactosidase activity using ONPG (Promega)."}, "PPARγ/δ targets": {"test_system": "PPARγ/δ targets", "assay": "mRNA analyses of PPARγ/δ targets in 3T3-L1 adipocytes", "type": "cell-based", "settings": "10 μM", "description": "Compound 9 increased the gene expression of PPARγ targets MCAD, HSL, ATGL and adiponectin."}, "[1]": {"assay": "Heart size (heart weight to body weight ratio)", "type": "in vivo", "settings": "10 mg/kg oral daily for 1 month, wild type and db/db mice", "description": "Diabetic db/db mice were fed a normal rodent chow diet. […] Mice were then weighed and their hearts were extracted and weighed. The heart weight of the mice compared to the body weight of the mice was then calculated based upon heart weight to body weight ratio."}, "PPARγ targets": {"test_system": "PPARγ targets", "assay": "PPARγ target gene (mRNA) expression in hippocampi by qRT-PCR", "type": "in vivo, mice", "settings": "1 mg/kg orally, compared to rosiglitazone (ICV) and control", "description": "Male C57/b16 and leptin deficient (db/db) mice were purchased from Jackson Laboratories (Bar Harbor, Me.). Animals were maintained in 12 hours of dark-light cycle. […] Both drugs were suspended in sterile saline. Four additional groups comprised the control portion of the study and received physiological saline in the place of the drug treatment either orally or by ICV. […] All treatments extended for 2 weeks.\nTotal RNA was isolated from hippocampi using RNAeasy Lipid Tissue Mini Kit (Qiagen, Valencia, Calif.) and was converted to cDNA (iScript cDNA synthesis kit—Bio Rad, Hercules, Calif.). Real-time PCR was performed in triplicate using a RT2 SYBR Green/Fluorescein fast master mix (SA-Bioscience) and an iCycler real-time PCR thermocycler (Bio-Rad). Gene expression was normalized to β-actin. Relative gene expression was determined by the comparative CT method (30). The data is presented as mean+/−SEM."}, "H19-7 hippocampal cells": {"test_system": "H19-7 hippocampal cells", "assay": "BDNF, post synaptic markers and spine formation in H19-7 hippocampal cells", "type": "cell-based", "description": "As shown in FIGS. 15A & B, reduced BDNF protein and gene expression is observed in db/db hippocampi which helps explain the observation that diabetes attenuates the expression of post synaptic receptor expression levels in db/db mice hippocampi.\nAs mentioned above, BDNF is known to induce synaptogenesis, spine density, and post synaptic receptor expression in neurons but has been previously shown to be reduced in AD brains.\nThe novel compounds (e.g., compound 9) have been developed as tools to better study the effects of PPARγ activation in the hippocampus upon cognition in AD."}, "[2]": {"test_system": "BDNF promoter in primary hippocampal neuronal cells", "assay": "BDNF promoter luciferase activity", "type": "cell-based, rat", "settings": "dose response curve", "description": "Primary hippocampal cells: Rat primary neuron cultures for luciferase assays as well as westerns and all other cell cultured assays are described herein. Rat primary neuron cultures can be generated from embryonic day 18-21 rat embryo (male and female) brains (Sprague Dawley) following known protocols. Briefly, the cortices, together with hippocampi, can be dissected and cells can be dissociated with 0.25% trypsin (Invitrogen), treated with 0.05% DNase I (Roche). To remove alternative cells and RBC's, tissue slurry can be allowed to sediment by gravity for 30 minutes at room temperature. Lower cellular suspension can then be plated on poly-D-lysine-coated dishes in Neurobasal A medium (Invitrogen) with B27 supplement (Invitrogen), penicillin (PAA Laboratories, 100 U/ml), streptomycin (PAA Laboratories, 0.1 mg/ml), and 1 mM L-glutamine (PAA Laboratories). Mitotic inhibitor 5-fluoro-2′-deoxyuridine (Sigma) can be added to the medium (10 μM) at 2 days in vitro (DIV) to remove fibroblast and astrocyte contamination. To test isolation purity for neurons, markers for neurons (MAP2) specificity can be measured by gene and western analysis.\nNine distinct transcriptional initiation sites exist: eight in the 5′ noncoding exon and one preceding coding exon IX, indicating nine different promoters control BDNF transcription sites. […]"}}, "note": "“Also recorded” adds a separate entry of the source.", "data": [{"smiles": "Cc1ccc(CNCCCN(Cc2ccc(C(=O)O)cc2)Cc2cc(C(F)(F)F)cc(C(F)(F)F)c2)cc1", "note": "[Compound 9]", "values": [{"measurement": "Binding affinity for the AP2-PPRE", "setting": "PPARγ (AP2-PPRE); luciferase assay, HEK-293 cells, 10 μM", "value": "less binding affinity"}, {"measurement": "Activation of the AP2-PPRE", "setting": "PPARγ (AP2-PPRE); transcriptional assays", "value": "minimally activates"}, {"measurement": "Expression of genes associated with lipid accumulation and synthesis (FATP, CD36, DGAT)", "setting": "PPARγ/δ targets", "value": "marginally induced"}, {"measurement": "Gene expression of PDK4", "setting": "PPARγ/δ targets", "value": "increased"}, {"measurement": "Gene expression of PPARγ targets MCAD, HSL, ATGL and adiponectin", "setting": "PPARγ/δ targets", "value": "increased"}, {"measurement": "Heart size", "setting": "[1]", "value": "lacks increase in heart size; also recorded: decreased heart size"}, {"measurement": "Activation of PPARγ targets in hippocampi (mRNA expression)", "setting": "PPARγ targets", "value": "selective activation of PPARγ targets"}, {"measurement": "Post synaptic density marker PSD95 expression", "setting": "H19-7 hippocampal cells; H19-7 cells, western analysis", "value": "increase"}, {"measurement": "BDNF expression", "setting": "H19-7 hippocampal cells; H19 cells", "value": "increase"}, {"measurement": "Spine formation", "setting": "H19-7 hippocampal cells; H19 cells", "value": "promotes spine formation"}, {"measurement": "BDNF promoter activity (luciferase)", "setting": "[2]", "value": "inducing"}]}]}
